Source: patent US20230322723A1, “COMPOUNDS FOR SUPPRESSING EGFR MUTANT CANCER AND PHARMACEUTICAL USE THEREOF” (J2H BIOTECH INC., priority 2020, published 2023)

Key:
[1] = tested on: EGFR^del19+T790M+C797S; experiment: EGFR protein degradation test (Western blot) in Ba/F3 cells expressing mutant EGFR del19+T790M+C797S (DTC); type: cell-based; conditions: compounds at 0.1 μM and 1 μM, 24 hours, Western blot with EGFR antibody
Summary of the method: (§1)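 EGFR protein level was measured by Western blot on 30 μg lysate, bands quantified by imager. Lysates came from Ba/F3 lines carrying normal, LTC or DTC mutant EGFR, exposed 24 h to compound at 0.1 and 1 μM.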

[2] = target: T1, EGFR^L858R+T790M+C797S (Homo sapiens, UniProt P00533, C797S/L858R/T790M); experiment: EGFR protein degradation test (Western blot) in Ba/F3 cells expressing mutant EGFR L858R+T790M+C797S (LTC); type: cell-based; conditions: compounds at 0.1 μM and 1 μM, 24 hours, Western blot with EGFR antibody
T1 construct: expressed in transfected cells; host or cells: Ba/F3
T1 sequence (P00533 25-1210 T790M/C797S/L858R): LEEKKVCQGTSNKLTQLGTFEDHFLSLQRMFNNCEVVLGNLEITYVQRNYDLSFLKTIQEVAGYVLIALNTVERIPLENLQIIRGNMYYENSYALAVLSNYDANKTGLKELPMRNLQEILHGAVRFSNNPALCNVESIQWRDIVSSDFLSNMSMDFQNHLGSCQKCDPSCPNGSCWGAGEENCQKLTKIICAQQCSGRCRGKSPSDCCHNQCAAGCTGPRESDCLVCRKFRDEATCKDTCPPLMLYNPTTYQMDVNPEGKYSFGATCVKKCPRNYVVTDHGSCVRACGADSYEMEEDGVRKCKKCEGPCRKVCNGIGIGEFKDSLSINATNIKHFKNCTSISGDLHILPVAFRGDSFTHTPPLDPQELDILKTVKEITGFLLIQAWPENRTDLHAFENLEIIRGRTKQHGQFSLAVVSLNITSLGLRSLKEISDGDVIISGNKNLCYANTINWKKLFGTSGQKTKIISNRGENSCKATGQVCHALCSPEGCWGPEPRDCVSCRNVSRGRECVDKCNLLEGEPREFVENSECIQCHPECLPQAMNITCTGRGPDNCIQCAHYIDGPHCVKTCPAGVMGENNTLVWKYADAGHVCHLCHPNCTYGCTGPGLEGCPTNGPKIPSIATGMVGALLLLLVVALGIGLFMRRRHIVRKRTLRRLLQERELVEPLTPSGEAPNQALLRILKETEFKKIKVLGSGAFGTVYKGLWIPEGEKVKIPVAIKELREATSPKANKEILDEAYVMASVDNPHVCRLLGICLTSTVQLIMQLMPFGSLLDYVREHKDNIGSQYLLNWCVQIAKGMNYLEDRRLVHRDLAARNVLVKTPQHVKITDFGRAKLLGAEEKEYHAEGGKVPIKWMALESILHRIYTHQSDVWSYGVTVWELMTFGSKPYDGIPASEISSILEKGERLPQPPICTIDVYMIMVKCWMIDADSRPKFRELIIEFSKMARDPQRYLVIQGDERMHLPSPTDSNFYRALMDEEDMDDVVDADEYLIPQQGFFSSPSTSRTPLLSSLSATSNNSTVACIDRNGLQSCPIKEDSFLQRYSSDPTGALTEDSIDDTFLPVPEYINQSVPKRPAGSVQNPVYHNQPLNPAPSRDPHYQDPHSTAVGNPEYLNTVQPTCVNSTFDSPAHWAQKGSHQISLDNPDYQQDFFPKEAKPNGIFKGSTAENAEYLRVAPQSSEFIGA
Summary of the method: as §1

[3] = Pharmacokinetic evaluation after single oral administration to ICR mice; type: in vivo; conditions: mouse, ICR mice, single oral dose 5 mg/kg, plasma; for AUC(0-t): read-out: AUC0-24
Description: Pharmacokinetic tests for the compounds of the present invention were conducted as below. After a single oral administration of the compound of the present invention to ICR mice, the concentration of the compound over time was followed up and analyzed.
The compound of the present invention was suspended in 10% DMSO/90% (30% HPbCD aqueous solution) and orally administered to mice at a dose of 5 mg/kg. Blood was collected at a fixed time and plasma was separated. Drug analysis was performed using HPLC (XBridge column C18, Waters, mobile phase 0.1% formic acid:acetonitrile (30:70, %/%)) and MS/MS (ESI positive, MRM). Mouse blood plasma and each commercially available standard solution were mixed at a ratio of 9:1 to prepare and calibrate at concentrations of […] 5,000 ng/mL. In addition, the preparation of QC samples was prepared by mixing the mouse blood plasma and the standard solution for QC at a ratio of 9:1, and prepared to be concentrations of 100, 750 and 2,500 ng/mL. 100 μL of the plasma sample was transferred to a centrifugation tube, and 10 μL of the internal standard solution and 300 μL of methanol were added, followed by mixing for about 30 seconds for pretreatment. The tube was centrifuged at 3,000×g (4° C.) for about 5 minutes, and the supernatant was taken and transferred to an LC vial and injected into the instrument. Then, the concentration of the compound in mouse plasma was quantified by applying a previously validated assay. For pharmacokinetic parameters, the program WinNonlin 5.2 (Pharsight, USA) was used. AUC0-t, AUC0-∞, Cmax, Tmax, and t1/2 were calculated by Noncompartment modeling (best fit). The pharmacokinetic parameter results were expressed as the mean (Mean) and standard deviation (SD), and were statistically processed using the SPSS program (Statistical Package for the Social Sciences, 10.0K, USA).

LTC (EGFR^L858R+T790M+C797S) protein degradation [2]	half-life [3]	AUC(0-t) [3]	SMILES	DTC (EGFR^del19+T790M+C797S) protein degradation [1]
++ (Protein degradation > 80%)	9.29 h	32 ng·h/mL	COc1cc(N2CCN(CC3CCN(CC(=O)Nc4cccc5c4CN(C4CCC(=O)NC4=O)C5=O)CC3)CC2)ccc1Nc1ncc(Cl)c(Nc2ccccc2N(C)S(C)(=O)=O)n1 (centres unmarked) [Compound 26, 2-(4-((4-(4-((5-chloro-4-((2-(N-methylmethylsulfonamido)phenyl)amino)pyrimidin-2-yl)amino)-3-methoxyphenyl)piperazin-1-yl)methyl)piperidin-1-yl)-N-(2-(2,6-dioxopiperidin-3-yl)-1-oxoisoindolin-4-yl)acetamide]	++ (Protein degradation > 80%)
++ (Protein degradation > 80%)	5.07 h	346 ng·h/mL	CN(c1ccccc1Nc1nc(Nc2ccc(N3CCN(CC4CCN(C(=O)COc5cccc6c5C(=O)N(C5CCC(=O)NC5=O)C6=O)CC4)CC3)c(F)c2)ncc1Cl)S(C)(=O)=O (centres unmarked) [Compound 43, N-(2-((5-chloro-2-((4-(4-((1-(2-((2-(2,6-dioxopiperidin-3-yl)-1,3-dioxoisoindolin-4-yl)oxy)acetyl)piperidin-4-yl)methyl)piperazin-1-yl)-3-fluorophenyl)amino)pyrimidin-4-yl)amino)phenyl)-N-methylmethanesulfonamide]	++ (Protein degradation > 80%)
++ (Protein degradation > 80%)	4.13 h	134 ng·h/mL	COc1cc(N2CCC(N3CCN(CC(=O)Nc4ccc5c(c4)CN(C4CCC(=O)NC4=O)C5=O)CC3)CC2)ccc1Nc1ncc(Cl)c(Nc2ccccc2N(C)S(C)(=O)=O)n1 (centres unmarked) [Compound 47, 2-(4-(1-(4-((5-chloro-4-((2-(N-methylmethylsulfonamido)phenyl)amino)pyrimidin-2-yl)amino)-3-methoxyphenyl)piperidin-4-yl)piperazin-1-yl)-N-(2-(2,6-dioxopiperidin-3-yl)-1-oxoisoindolin-5-yl)acetamide]	++ (Protein degradation > 80%)
++ (Protein degradation > 80%)	3.65 h	44 ng·h/mL	COc1cc(N2CCN(CC3CCN(C(=O)COc4cccc5c4C(=O)N(C4CCC(=O)NC4=O)C5=O)CC3)CC2)ccc1Nc1ncc(Cl)c(Nc2ccccc2N(C)S(C)(=O)=O)n1 (centres unmarked) [Compound 53, N-(2-((5-chloro-2-((4-(4-((1-(2-((2-(2,6-dioxopiperidin-3-yl)-1,3-dioxoisoindolin-4-yl)oxy)acetyl)piperidin-4-yl)methyl)piperazin-1-yl)-2-methoxyphenyl)amino)pyrimidin-4-yl)amino)phenyl)-N-methylmethanesulfonamide]	++ (Protein degradation > 80%)

More lines, now with the values behind:

SMILES	LTC (EGFR^L858R+T790M+C797S) protein degradation [2]	half-life [3]	AUC(0-t) [3]	DTC (EGFR^del19+T790M+C797S) protein degradation [1]
COc1cc(N2CCC(N3CCN(CC(=O)N[C@H](C(=O)N4C[C@H](O)C[C@@H]4C(=O)NCc4ccc(-c5scnc5C)cc4)C(C)(C)C)CC3)CC2)ccc1Nc1ncc(Cl)c(Nc2ccccc2N(C)S(C)(=O)=O)n1 [Compound 11, (2R,4R)-1-((S)-2-(2-(4-(1-(4-((5-chloro-4-((2-(N-methylmethylsulfonamido)phenyl)amino)pyrimidin-2-yl)amino)-3-methoxyphenyl)piperidin-4-yl)piperazin-1-yl)acetamido)-3,3-dimethylbutanoyl)-4-hydroxy-N-(4-(4-methylthiazol-5-yl)benzyl)pyrrolidin-2-carboxamide]	++ (Protein degradation > 80%)	6.54 h	553 ng·h/mL	++ (Protein degradation > 80%)
COc1cc(N2CCC(N3CCN(CCC(=O)N[C@H](C(=O)N4C[C@H](O)C[C@@H]4C(=O)NCc4ccc(-c5scnc5C)cc4)C(C)(C)C)CC3)CC2)ccc1Nc1ncc(Cl)c(Nc2ccccc2N(C)S(C)(=O)=O)n1 [Compound 20, (2R,4R)-1-((S)-2-(3-(4-(1-(4-((5-chloro-4-((2-(N-methylmethylsulfonamido)phenyl)amino)pyrimidin-2-yl)amino)-3-methoxyphenyl)piperidin-4-yl)piperazin-1-yl)propanamido)-3,3-dimethylbutanoyl)-4-hydroxy-N-(4-(4-methylthiazol-5-yl)benzyl)pyrrolidin-2-carboxamide]	++ (Protein degradation > 80%)	8.99 h	42 ng·h/mL	++ (Protein degradation > 80%)
COc1cc(N2CCC(N3CCN(CC(=O)Nc4cccc5c4CN(C4CCC(=O)NC4=O)C5=O)CC3)CC2)ccc1Nc1ncc(Cl)c(Nc2ccccc2N(C)S(C)(=O)=O)n1 (centres unmarked) [Compound 22, 2-(4-(1-(4-((5-chloro-4-((2-(N-methylmethylsulfonamido)phenyl)amino)pyrimidin-2-yl)amino)-3-methoxyphenyl)piperidin-4-yl)piperazin-1-yl)-N-(2-(2,6-dioxopiperidin-3-yl)-1-oxoisoindolin-4-yl)acetamide]	++ (Protein degradation > 80%)	12.4 h	47 ng·h/mL	++ (Protein degradation > 80%)
COc1cc(N2CCC(CN3CCN(CC(=O)Nc4cccc5c4CN(C4CCC(=O)NC4=O)C5=O)CC3)CC2)ccc1Nc1ncc(Cl)c(Nc2ccccc2N(C)S(C)(=O)=O)n1 (centres unmarked) [Compound 24, 2-(4-((1-(4-((5-chloro-4-((2-(N-methylmethylsulfonamido)phenyl)amino)pyrimidin-2-yl)amino)-3-methoxyphenyl)piperidin-4-yl)methyl)piperazin-1-yl)-N-(2-(2,6-dioxopiperidin-3-yl)-1-oxoisoindolin-4-yl)acetamide]	++ (Protein degradation > 80%)	12.4 h	17 ng·h/mL	++ (Protein degradation > 80%)
COc1cc(N2CCC(N3CCN(CCNc4cccc5c4C(=O)N(C4CCC(=O)NC4=O)C5=O)CC3)CC2)ccc1Nc1ncc(Cl)c(Nc2ccccc2N(C)S(C)(=O)=O)n1 (centres unmarked) [Compound 45, N-(2-((5-chloro-2-((4-(4-(4-(2-((2-(2,6-dioxopiperidin-3-yl)-1,3-dioxoisoindolin-4-yl)amino)ethyl)piperazin-1-yl)piperidin-1-yl)-2-methoxyphenyl)amino)pyrimidin-4-yl)amino)phenyl)-N-methylmethanesulfonamide]	++ (Protein degradation > 80%)	3.45 h	992 ng·h/mL	++ (Protein degradation > 80%)
COc1cc(N2CCC(N3CCN(CCC4CCN(c5ccc6c(c5)C(=O)N(C5CCC(=O)NC5=O)C6=O)CC4)CC3)CC2)ccc1Nc1ncc(Cl)c(Nc2ccccc2N(C)S(C)(=O)=O)n1 (centres unmarked) [Compound 51, N-(2-((5-chloro-2-((4-(4-(4-(2-(1-(2-(2,6-dioxopiperidin-3-yl)-1,3-dioxoisoindolin-5-yl)piperidin-4-yl)ethyl)piperazin-1-yl)piperidin-1-yl)-2-methoxyphenyl)amino)pyrimidin-4-yl)amino)phenyl)-N-methylmethanesulfonamide]	++ (Protein degradation > 80%)	2.81 h	635 ng·h/mL	++ (Protein degradation > 80%)
COc1cc(N2CCN(CC3CCN(C(=O)CCc4cccc5c4C(=O)N(C4CCC(=O)NC4=O)C5=O)CC3)CC2)ccc1Nc1ncc(Cl)c(Nc2ccccc2N(C)S(C)(=O)=O)n1 (centres unmarked) [Compound 54, N-(2-((5-chloro-2-((4-(4-((1-(3-(2-(2,6-dioxopiperidin-3-yl)-1,3-dioxoisoindolin-4-yl)propanoyl)piperidin-4-yl)methyl)piperazin-1-yl)-2-methoxyphenyl)amino)pyrimidin-4-yl)amino)phenyl)-N-methylmethanesulfonamide]	++ (Protein degradation > 80%)	6.12 h	840 ng·h/mL	++ (Protein degradation > 80%)
